Columns and labels:
[1] = system: PaR5: Pseudomonas aeruginosa; assay: Antibiogram by the disk diffusion technique; format: cell-based
Experimental: (§1) The bacterial and antibiogramidentification is carried out by the VITEK 2 system (bioMérieux) and by the disk diffusion technique

[2] = system: SaR3: Meticillin-Resistant Staphylococcus aureus; assay: Antibiogram by the disk diffusion technique; format: cell-based
Experimental: as §1

[3] = system: SaR4: Meticillin-Resistant Staphylococcus aureus; assay: Antibiogram by the disk diffusion technique; format: cell-based
Experimental: as §1

[4] = system: SaR1: Meticillin-Resistant Staphylococcus aureus without Associated Resistance; assay: Antibiogram, MIC by the VITEK 2 system; format: cell-based; conditions: SaR1
Experimental: (§2) The bacterial and antibiogramidentification is carried out by the VITEK 2 system (bioMérieux)

[5] = system: PaR3: Pseudomonas aeruginosa; assay: Antibiogram, MIC by the VITEK 2 system; format: cell-based
Experimental: as §2

[6] = system: MRSA strain having a resistance to the aminoglycosides, fluoroquinolones, macrolides-lincosamides-synergistins and ofloxacin (SaR4); assay: MIC of the compounds used alone, microdilution in a liquid medium (CLSI); format: cell-based, Staphylococcus aureus; conditions: antibiotic alone (second value of cell); SaR4
From the text: (§3) The MICs of the antibiotics were previously defined for each strain, by the method of microdilution in a liquid medium (CLSI (Clinical and Laboratory Standards Institute), 2003).

[7] = system: MRSA strain having a resistance to the aminoglycosides and fluoroquinolones (SaR3); assay: as above; format: cell-based, Staphylococcus aureus; conditions: antibiotic alone (second value of cell); SaR3
From the text: as §3

[8] = system: MRSA strain without associated resistance (SaR1); assay: as above; format: cell-based, Staphylococcus aureus; conditions: antibiotic alone (second value of cell); SaR1
From the text: as §3

[9] = system: EcR1: Penicillinase-Producing Escherichia coli without Associated Resistance; assay: Antibiogram, MIC by the VITEK 2 system; format: cell-based
Experimental: (§4) 5.1 EcR1: Penicillinase-Producing Escherichia coli without Associated Resistance The bacterial and antibiogramidentification is carried out by the VITEK 2 system (bioMérieux) and by the disk diffusion technique.

[10] = system: penicillinase-producing strain of Escherichia coli without associated resistance (EcR1); assay: MIC of the compounds used alone, microdilution in a liquid medium (CLSI); format: cell-based; conditions: antibiotic alone (second value of cell)
From the text: as §3

[11] = system: Staphylococcus aureus strain ATCC 29213 (wild type); assay: as above; format: cell-based; conditions: antibiotic alone (second value of cell); S. aureus ATCC 29213
From the text: as §3

[12] = system: Escherichia coli strain ATCC 25922 (wild type); assay: as above; format: cell-based; conditions: antibiotic alone (second value of cell); E. coli ATCC 25922
From the text: as §3

[13] = system: cephalosporinase-hyperproducing strain of Escherichia coli (EcR2); assay: as above; format: cell-based; conditions: antibiotic alone (second value of cell)
From the text: as §3

[14] = system: ESBL-producing strain of Escherichia coli, having an associated resistance to the aminoglycosides (EcR3); assay: as above; format: cell-based; conditions: antibiotic alone (second value of cell)
From the text: as §3

[15] = system: SaR1: Meticillin-Resistant Staphylococcus aureus without Associated Resistance; assay: Antibiogram, inhibition diameter (Table D1); format: cell-based
Experimental: as §2

[16] = system: EcR3: ESBL-Producing Escherichia coli; assay: Antibiogram by the disk diffusion technique; format: cell-based
Experimental: The bacterial and antibiogramidentification is carried out by the VITEK 2 system (bioMerieux) and by the disk diffusion technique

[17] = system: Escherichia coli, Staphylococcus aureus and Pseudomonas aeruginosa strains; assay: Chessboard technique, summary statements over all strains and combinations tested; format: cell-based; conditions: strain not stated
Method in brief: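 Checkerboard of 64 antibiotic/Cx1 concentration combinations per strain. FIC index classed as synergy (≤0.5), additive (>0.5–1), indifferent (>1–4) or antagonism (>4). Each strain and combination tested at least 3 times.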

[18] = system: EcR2: Cephalosporinase-Hyperproducing Strain of Escherichia coli; assay: Antibiogram by the disk diffusion technique; format: cell-based
Experimental: The bacterial and antibiogramidentification is carried out by the VITEK 1 system (bioMérieux) and by the disk diffusion technique

[19] = system: PaR2: Pseudomonas aeruginosa; format: cell-based
Experimental: as §1

[20] = system: EcR1: Penicillinase-Producing Escherichia coli without Associated Resistance; assay: Antibiogram by the disk diffusion technique; format: cell-based; conditions: Table A1
Experimental: as §4

Gentamicin
Susceptible: Results ([1]; PaR5, Table I1, against Dmin-Dmax) | CA-SFM Interpretation ([1]; disk diffusion, PaR5, versus critical diameter CA-SFM 2011) | CLSI Interpretation ([1]; disk diffusion, PaR5, versus critical diameter CLSI 2011) | EUCAST Interpretation ([1]; disk diffusion, PaR5, versus critical diameter EUCAST 2011, for ** antibiotics the disk load differs and the EUCAST interpretation is not applicable) | CA-SFM Interpretation ([2]; Cd CA-SFM 2011) | CLSI Interpretation ([2]; Cd CLSI 2011) | EUCAST Interpretation ([2]; Cd EUCAST 2011) | Results ([2]; Table E1, against Dmin Dmax) | Results ([3]; Table F1, rows with a diameter) | CA-SFM Interpretation ([3]; from diameter, CA-SFM 2011) | CLSI Interpretation ([3]; from diameter, CLSI 2011) | EUCAST Interpretation ([3]; from diameter, EUCAST 2011) | CA-SFM Interpretation ([4]; Cc CA-SFM 2011) | CLSI Interpretation ([4]; Cc CLSI 2011) | EUCAST Interpretation ([4]; Cc EUCAST 2011) | Results ([4]; Table D1, from MIC) | CA-SFM Interpretation ([9]; EcR1, MIC against Cc CA-SFM 2011) | CLSI Interpretation ([9]; EcR1, MIC against Cc CLSI 2011) | EUCAST Interpretation ([9]; EcR1, MIC against Cc EUCAST 2011) | Results ([9]; EcR1, interpretation of the MIC, Table A1) | Results ([15]; from diameter, against Dmin Dmax) | CA-SFM Interpretation ([19]; Cd CA-SFM 2011) | CLSI Interpretation ([19]; Cd CLSI 2011) | EUCAST Interpretation ([19]; Cd EUCAST 2011) | Results ([19]; Table G1, against Dmin-Dmax) | Results ([20]; EcR1, interpretation of the diameter against Dmin Dmax)
20 mm: Diameter ([2]; Table E1) | diameter in mm ([2]; Table E2) | Diameter ([20]; EcR1, disk diffusion)
synergism: interaction between the antibiotic and Cx1 [17]
≧16 mg/L: MIC mg/L ([5]; Table H2)
Resistant: CA-SFM Interpretation ([5]; Cc CA-SFM 2011) | CLSI Interpretation ([5]; Cc CLSI 2011) | EUCAST Interpretation ([5]; Cc EUCAST 2011) | Results ([5]; Table H1) | CA-SFM Interpretation ([16]; Cd CA-SFM 2011) | EUCAST Interpretation ([16]; Cd EUCAST 2011) | Results ([16]; Table C1, against Dmin Dmax) | Results ([18]; EcR2, rows that print a diameter, Table B1) | CA-SFM Interpretation ([18]; EcR2, from diameter, CA-SFM 2011) | CLSI Interpretation ([18]; EcR2, from diameter, CLSI 2011) | EUCAST Interpretation ([18]; EcR2, from diameter, EUCAST 2011)
≧16: MIC ([5]; Table H1)
≦0.5 mg/L: MIC mg/L ([4]; Table D1) | MIC mg/L ([4]; Table D2)
0.25 mg/L: MIC [6] | MIC [8] | Initial MICs [11]
23 mm: Diameter [15]
Intermediate: CLSI Interpretation ([16]; Cd CLSI 2011)
21: Diameter ([3]; Table F1)
0.125 mg/L: MIC [7] | Initial MICs [10] | Initial MICs [12]
25 mm: Diameter ([1]; PaR5, Table I1) | diameter in mm ([1]; disk diffusion inhibition diameter, strain PaR5)
≦1 mg/L: MIC mg/L (diameter in mm) ([9]; EcR1, Table A2) | MIC mg/L ([9]; EcR1, VITEK 2, Table A1)
2/2 mg/L: Initial MICs (mg/L) [13] | Initial MICs (mg/L) [14]
12 mm: Diameter ([16]; Table C1) | diameter in mm ([16]; Table C2) | Diameter ([18]; EcR2, Table B2, diameters)
12: Diameter ([18]; EcR2, disk diffusion, Table B1)
21 mm: Diameter ([3]; Table F2, diameters) | Diameter ([19]; Table G1) | diameter in mm ([19]; Table G2)

— patent US20140066365A1, “USE OF CALIXARENES ASSOCIATED WITH AN ANTIBIOTIC IN THE TREATMENT OF BACTERIAL INFECTIONS” (priority 2011, published 2014)
